In brackets after ≈: the same amount, converted by molar mass. Like-named read-outs stand apart in the source and are kept apart here.
Tests used:
[1] = tested on: E coli carrying specific resistance determinants; test: MIC by broth microdilution, E coli carrying specific resistance determinants; assay type: cell-based
MRSA = test: MIC by broth microdilution, MRSA isolates; assay type: cell-based
N. gonorrhoeae = test: Disk diffusion, N. gonorrhoeae; assay type: cell-based; settings: 25 nmol
[2] = tested on: Klebsiella pneumonia AG215; test: MIC by broth microdilution, Klebsiella pneumonia; assay type: cell-based; settings: strain AG215 Klebsiella pneumonia
[3] = tested on: Acinetobacter baumannii pittii AG225; test: MIC by broth microdilution, Acinetobacter baumannii; assay type: cell-based; settings: strain AG225 Acinetobacter baumannii pittii
P aeruginosa = test: MIC by broth microdilution, P aeruginosa isolates; assay type: cell-based, Pseudomonas aeruginosa
[4] = tested on: rabbit reticulocyte ribosomes; test: in-vitro translation assay, rabbit reticulocyte ribosomes; assay type: biochemical; settings: mammalian cytosolic ribosomes (rabbit)
[5] = tested on: Enterobacter cloacae AG290; test: MIC by broth microdilution, Enterobacter cloacae; assay type: cell-based; settings: strain AG290 Enterobacter cloacae
[6] = tested on: cytosolic ribosome (human chimeric); assay type: biochemical
Description: (§1) The antiribosomal activity of these compounds was investigated with cell-free translation assays using both wild type bacterial ribosomes and hybrid ribosomes carrying eukaryotic decoding A sites enabling the prediction of selectivity.

[7] = tested on: mitochondrial ribosome (human chimeric); assay type: biochemical
Description: as §1

Structure (SMILES): NC[C@@H]1O[C@H](O[C@H]2[C@@H](O)[C@H](O[C@@H]3[C@@H](O)[C@H](N)C[C@H](N)[C@H]3O[C@H]3O[C@H](CN)[C@@H](O)[C@H](O)[C@H]3N)O[C@@H]2CO)[C@H](N)[C@@H](O)[C@@H]1O [neomycin, Neomycin B, reference compound]
- MIC AG037 APH(3′)-III ([1]; E. coli strain AG037, APH(3′)-III): >64 µg/mL
- MIC AG103 armA ([1]; E. coli strain AG103, armA): 0.25 to 0.5 µg/mL
- MIC pH414 AAC(6′)-I ([1]; E. coli strain pH414, AAC(6′)-I): 2 μg/ml
- MIC pH415 AAC(6′)-II ([1]; E. coli strain pH415, AAC(6′)-II): 4 μg/ml
- MIC pH421 APH(3)-I ([1]; E. coli strain pH421, APH(3)-I): >128 μg/ml
- MIC pH422 APH(3′)-II ([1]; E. coli strain pH422, APH(3′)-II): 64 μg/ml
- MIC pH423 APH(3′)-VI ([1]; E. coli strain pH423, APH(3′)-VI): 32-64 μg/ml
- MIC pH432 ANT(4′) ([1]; E. coli strain pH432, ANT(4′)): 1 μg/ml
- MIC AG003 E. coli AAC(3)-II ([1]; clinical isolate AG003, AAC(3)-II): 1 µg/mL (≈ 1.63 µM)
- MIC AG163 E. coli APH(3′)-I ([1]; clinical isolate AG163 APH(3′)-I, Table 2 (Example 4)): >64 µg/mL
- MIC AG166 E. coli APH(3′)-II ([1]; clinical isolate AG166 APH(3′)-II, Table 2 (Example 4)): 64 µg/mL (≈ 104 µM)
- MIC AG037 E. coli APH(3′)-III ([1]; engineered strain AG037 APH(3′)-III, Table 2 (Example 4)): >64 µg/mL
- MIC pH421 E. coli APH(3′)-I ([1]; engineered strain pH421 APH(3′)-I, Table 2 (Example 4)): >128 μg/ml
- MIC pH422 E. coli APH(3′)-II ([1]; engineered strain pH422 APH(3′)-II, Table 2 (Example 4)): 64 μg/ml
- MIC pH423 E. coli APH(3′)-VI ([1]; engineered strain pH423 APH(3′)-VI, Table 2 (Example 4)): 32-64 μg/ml
- MIC E. coli pGB2armA armA ([1]; pGB2armA armA, Table 5 (Example 3)): 0.25-0.5 μg/ml
- MIC50 E coli pH414 AAC(6′)-I ([1]; pH414 AAC(6′)-I, Table 2B (Example 2)): 2 μg/ml
- MIC50 E coli pH415 AAC(6′)-II ([1]; pH415 AAC(6′)-II, Table 2B (Example 2)): 4 μg/ml
- MIC50 E coli pH421 APH(3′)-I ([1]; pH421 APH(3′)-I, Table 2B (Example 2)): >128 μg/ml
- MIC50 E coli pH422 APH(3′)-II ([1]; pH422 APH(3′)-II, Table 2B (Example 2)): 64 μg/ml
- MIC50 E coli pH423 APH(3)-VI ([1]; pH423 APH(3)-VI, Table 2B (Example 2)): 32-64 μg/ml
- MIC50 E coli pH432 ANT(4′) ([1]; pH432 ANT(4′), Table 2B (Example 2)): 1 μg/ml
- MIC E. coli pH434 AAC(2′)-Ib ([1]; pH434 AAC(2′)-Ib, Table 5 (Example 3)): >64 μg/ml
- MIC AG038 MRSA (MRSA; clinical isolate AG038): 0.25 µg/mL (≈ 0.407 µM)
- MIC MRSA AG038 (MRSA; clinical isolate AG038, Table 1 (Example 3)): 0.25 µg/mL (≈ 0.407 µM)
- MIC AG039 MRSA AAC(6′)-I ANT(4′)-I (MRSA; clinical isolate AG039, AAC(6′)-I ANT(4′)-I): 128 µg/mL (≈ 208 µM)
- MIC MRSA AG039 (MRSA; clinical isolate AG039, Table 1 (Example 3)): 128 µg/mL (≈ 208 µM)
- MIC AG042 MRSA AAC(6′)-I ANT(4′)-I APH(2′) (MRSA; clinical isolate AG042, AAC(6′)-I ANT(4′)-I APH(2′)): 128 µg/mL (≈ 208 µM)
- MIC MRSA AG042 (MRSA; clinical isolate AG042, Table 1 (Example 3)): 128 µg/mL (≈ 208 µM)
- MIC MRSA AG044 (MRSA; clinical isolate AG044, Table 1 (Example 3)): 0.5 to 1 µg/mL
- MIC50 MRSA AG38 (MRSA; strain AG38, Table 1 (Example 2)): 1 to 2 µg/mL
- MIC50 MRSA AG39 (MRSA; strain AG39, Table 1 (Example 2)): 128 µg/mL (≈ 208 µM)
- MIC50 MRSA AG42 (MRSA; strain AG42, Table 1 (Example 2)): 128 µg/mL (≈ 208 µM)
- MIC50 MRSA AG44 (MRSA; strain AG44, Table 1 (Example 2)): 0.5 to 1 µg/mL
- Disk diffusion 25 nmol N. gonorrhoeae (N. gonorrhoeae): <8 mm
- MIC AG215 K. pneumon [2]: 0.5 µg/mL (≈ 0.813 µM)
- MIC AG225 A. baumannii [3]: 1 to 2 µg/mL
- MIC AG031 P. aer. APH(3′)-II (P aeruginosa; clinical isolate AG031, APH(3′)-II): 8 µg/mL (≈ 13 µM)
- MIC AG032 P. aer. APH(3′)-II (P aeruginosa; clinical isolate AG032, APH(3′)-II): 8 µg/mL (≈ 13 µM)
- MIC50 P aeruginosa AG31 (P aeruginosa; strain AG31, Table 1 (Example 2)): 32 µg/mL (≈ 52.1 µM)
- MIC50 P aeruginosa AG32 (P aeruginosa; strain AG32, Table 1 (Example 2)): 32 to 64 µg/mL
- MIC50 P aeruginosa AG33 (P aeruginosa; strain AG33, Table 1 (Example 2)): >128 µg/mL
- MIC50 P aeruginosa AG86 (P aeruginosa; strain AG86, Table 1 (Example 2)): >128 µg/mL
- MIC AG220 P. aerugin (P aeruginosa; strain AG220 Pseudomonas aeruginosa ATCC27853): 32 µg/mL (≈ 52.1 µM)
- IC50 [4]: 49 µM
- MIC AG290 E. cloacae [5]: 1 µg/mL (≈ 1.63 µM)
- IC50 ([6]; cytosolic, Table 3 (Example 1), read-out: IC50 Cyt): 35 µM
- IC50 ([6]; cytosolic, Table 3 (Example 2), read-out: IC50 Cyt): 35 µM
- IC50 ([6]; cytosolic, Table 4 (Example 3), read-out: IC50 Cyt): 35 µM
- IC50 ([6]; ribosomes with a human cytosolic decoding site, read-out: IC50 Cytosolic): 35 µM
- IC50 ([7]; mitochondrial, Table 3 (Example 1), read-out: IC50 Mit): 4.3 µM
- IC50 ([7]; mitochondrial, Table 3 (Example 2), read-out: IC50 Mit): 4.3 µM
- IC50 ([7]; mitochondrial, Table 4 (Example 3), read-out: IC50 Mit): 4.3 µM
- Target specificity bacterial vs. Mitochondrial ([7]; relative target specificity, bacterial vs. human mitochondrial): low
- IC50 ([7]; ribosomes with a human mitochondrial decoding site, read-out: IC50 Mitoch.): 4.3 µM

— patent US11466044B2 (WAYNE STATE UNIVERSITY, priority 2017, dated 2022)
